The values below are quoted from earlier work in patent US20170020817A1, “SOLID NANOPARTICLE FORMULATION OF MICROTUBLE INHIBITORS WITH REDUCED OSTWALD REPENING FOR ORAL ADMINISTRATION” (Luminus Biosciences, Inc., priority 2013, published 2017).

The test system of one series is microtubules. The note with it: most test systems.

Consider `CC(=O)O[C@@]12CO[C@@H]1C[C@H](O)[C@@]1(C)C(=O)[C@H](O)C3=C(C)[C@@H](OC(=O)[C@H](O)[C@@H](NC(=O)OC(C)(C)C)c4ccccc4)C[C@@](O)([C@@H](OC(=O)c4ccccc4)[C@H]21)C3(C)C` [docetaxel], for which the solubility in water entry is on record as “about 14 mg/L”.

On to `C/C(=C\c1csc(C)n1)[C@@H]1C[C@@H]2O[C@]2(C)CCC[C@H](C)[C@H](O)[C@@H](C)C(=O)C(C)(C)[C@@H](O)CC(=O)O1` [epothilone B], for which the “effectiveness relative to epothilone A” value in the series on microtubules was “approximately ten-time more effective”.

With `C/C(=C\c1csc(C)n1)[C@@H]1C[C@@H]2O[C@]2(C)CCC[C@H](C)[C@H](O)[C@@H](C)C(=O)C(C)(C)[C@@H](O)CC(=O)N1` [Ixabepilone], the solubility in water entry is “about 3.5 mg/L”.

As for `CO[C@H]1C(=O)[C@]2(C)[C@@H](OC)C[C@H]3OC[C@@]3(OC(C)=O)[C@H]2[C@H](OC(=O)c2ccccc2)[C@]2(O)C[C@H](OC(=O)[C@H](O)[C@@H](NC(=O)OC(C)(C)C)c3ccccc3)C(C)=C1C2(C)C` [cabazitaxel], the solubility in water result was “about 8 mg/L”.

As to `CC(=O)O[C@H]1C(=O)[C@@]2(C)[C@H]([C@H](OC(=O)c3ccccc3)[C@]3(O)C[C@H](OC(=O)[C@H](O)[C@@H](NC(=O)c4ccccc4)c4ccccc4)C(C)=C1C3(C)C)[C@]1(OC(C)=O)CO[C@@H]1C[C@@H]2O` [paclitaxel], the solubility in water entry is given as “about 0.4 mg/L”.
